Consider 9 compounds from ChEMBL document CHEMBL4673392, “Discovery of a Novel Series of Potent and Selective Alkynylthiazole-Derived PI3Kγ Inhibitors” (ACS Med Chem Lett, 2021).

Test [1] has as its target T1, Phosphatidylinositol 4,5-bisphosphate 3-kinase catalytic subunit gamma isoform (Homo sapiens, UniProt P48736). In words: Inhibition of PI3Kgamma (unknown origin) using PIP2 as substrate measured after 15 mins in presence of [33P]-ATP by liquid scintillation counting method.
For test [2], the target named is T1, Phosphatidylinositol 4,5-bisphosphate 3-kinase catalytic subunit gamma isoform. Description: Inhibition of PI3Kgamma in human THP-1 cells assessed as reduction in Akt phosphorylation at Ser473 residue. The format is cell-based.
For the next test, the system named is Mus musculus. In words: Antiinflammatory activity against Balb/c mouse air pouch model assessed as decrease in IL-8 stimulated neutrophil recruitment in air pouch at 50 mg/kg, po treated for 1 hr prior to IL-8 administration and measured after 4 hrs by FACS analysis. The test is classed as functional. The note with it: time 5 hrs. A general note: Flow cytometry measures light scatter and fluorescence of single cells or particles in a stream.

Test [3] addresses Proto-oncogene tyrosine-protein kinase Src (Homo sapiens, UniProt P12931). In words: Inhibition of SRC (unknown origin).
Test [4] concerns the target Tyrosine-protein kinase SYK (Homo sapiens, UniProt P43405). In words: Inhibition of SYK (unknown origin).
For test [5], the target named is Rho-associated protein kinase 1 (Homo sapiens, UniProt Q13464). In words: Inhibition of ROCK1 (unknown origin).
Test [6] deals with T2, Interleukin-1 receptor-associated kinase 4 (Homo sapiens, UniProt Q9NWZ3).
T2 sequence (Q9NWZ3 whole entry): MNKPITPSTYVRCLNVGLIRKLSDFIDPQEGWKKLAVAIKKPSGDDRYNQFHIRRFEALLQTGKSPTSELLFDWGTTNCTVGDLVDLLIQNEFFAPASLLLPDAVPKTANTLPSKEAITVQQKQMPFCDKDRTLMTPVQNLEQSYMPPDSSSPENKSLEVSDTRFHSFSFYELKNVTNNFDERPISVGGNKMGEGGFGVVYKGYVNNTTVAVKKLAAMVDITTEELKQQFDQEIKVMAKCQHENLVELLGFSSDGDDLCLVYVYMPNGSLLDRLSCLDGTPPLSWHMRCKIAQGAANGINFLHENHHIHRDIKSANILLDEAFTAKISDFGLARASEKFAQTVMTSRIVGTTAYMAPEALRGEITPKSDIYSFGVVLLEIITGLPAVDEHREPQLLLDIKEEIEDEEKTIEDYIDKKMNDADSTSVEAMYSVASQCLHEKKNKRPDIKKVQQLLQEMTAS
Description: Inhibition of IRAK4 (unknown origin).

Test [7] has as its target Glycogen synthase kinase-3 beta (Homo sapiens, UniProt P49841). Description: Inhibition of GSK3B (unknown origin).
Test [8] concerns the target Cyclin-dependent kinase 2 (Homo sapiens, UniProt P24941). Description: Inhibition of CDK2 (unknown origin).
For test [9], the target named is Tyrosine-protein kinase JAK2 (Homo sapiens, UniProt O60674). Description: Inhibition of JAK2 (unknown origin).
Chain of Tyrosine-protein kinase JAK2 (O60674 whole entry): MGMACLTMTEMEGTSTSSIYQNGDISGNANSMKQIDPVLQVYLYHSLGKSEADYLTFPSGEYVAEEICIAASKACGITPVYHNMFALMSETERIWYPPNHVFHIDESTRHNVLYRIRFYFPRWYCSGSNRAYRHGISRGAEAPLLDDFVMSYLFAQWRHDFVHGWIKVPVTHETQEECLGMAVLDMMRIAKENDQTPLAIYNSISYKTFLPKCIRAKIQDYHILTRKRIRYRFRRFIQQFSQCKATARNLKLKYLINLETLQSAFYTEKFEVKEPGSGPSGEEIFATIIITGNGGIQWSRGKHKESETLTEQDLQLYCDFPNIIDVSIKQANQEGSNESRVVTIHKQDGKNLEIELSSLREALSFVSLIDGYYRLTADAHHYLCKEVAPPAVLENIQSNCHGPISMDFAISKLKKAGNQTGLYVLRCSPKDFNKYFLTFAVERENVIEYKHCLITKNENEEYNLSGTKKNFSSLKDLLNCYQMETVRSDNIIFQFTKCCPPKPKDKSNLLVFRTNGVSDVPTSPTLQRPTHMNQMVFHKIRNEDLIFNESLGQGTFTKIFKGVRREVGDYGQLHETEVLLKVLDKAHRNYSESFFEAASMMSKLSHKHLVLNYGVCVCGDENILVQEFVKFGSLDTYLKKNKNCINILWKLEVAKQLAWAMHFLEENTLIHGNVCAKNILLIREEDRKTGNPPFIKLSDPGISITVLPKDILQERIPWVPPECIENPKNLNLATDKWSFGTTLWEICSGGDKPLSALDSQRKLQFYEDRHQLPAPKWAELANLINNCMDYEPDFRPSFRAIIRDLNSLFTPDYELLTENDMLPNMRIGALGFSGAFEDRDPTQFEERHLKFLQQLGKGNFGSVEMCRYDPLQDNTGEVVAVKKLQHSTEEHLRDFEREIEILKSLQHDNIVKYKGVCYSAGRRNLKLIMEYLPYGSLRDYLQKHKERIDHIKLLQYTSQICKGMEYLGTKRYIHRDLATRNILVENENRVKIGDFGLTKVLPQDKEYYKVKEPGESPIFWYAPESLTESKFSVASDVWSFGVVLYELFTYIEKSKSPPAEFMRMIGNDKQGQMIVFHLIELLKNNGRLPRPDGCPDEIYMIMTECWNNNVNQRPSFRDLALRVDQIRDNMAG
Test [10] has as its target Vascular endothelial growth factor receptor 2 (Homo sapiens, UniProt P35968). Description: Inhibition of KDR (unknown origin).
The target of test [11] is Serine/threonine-protein kinase PLK1 (Homo sapiens, UniProt P53350). Description: Inhibition of PLK1 (unknown origin).
Chain of Serine/threonine-protein kinase PLK1 (P53350 whole entry): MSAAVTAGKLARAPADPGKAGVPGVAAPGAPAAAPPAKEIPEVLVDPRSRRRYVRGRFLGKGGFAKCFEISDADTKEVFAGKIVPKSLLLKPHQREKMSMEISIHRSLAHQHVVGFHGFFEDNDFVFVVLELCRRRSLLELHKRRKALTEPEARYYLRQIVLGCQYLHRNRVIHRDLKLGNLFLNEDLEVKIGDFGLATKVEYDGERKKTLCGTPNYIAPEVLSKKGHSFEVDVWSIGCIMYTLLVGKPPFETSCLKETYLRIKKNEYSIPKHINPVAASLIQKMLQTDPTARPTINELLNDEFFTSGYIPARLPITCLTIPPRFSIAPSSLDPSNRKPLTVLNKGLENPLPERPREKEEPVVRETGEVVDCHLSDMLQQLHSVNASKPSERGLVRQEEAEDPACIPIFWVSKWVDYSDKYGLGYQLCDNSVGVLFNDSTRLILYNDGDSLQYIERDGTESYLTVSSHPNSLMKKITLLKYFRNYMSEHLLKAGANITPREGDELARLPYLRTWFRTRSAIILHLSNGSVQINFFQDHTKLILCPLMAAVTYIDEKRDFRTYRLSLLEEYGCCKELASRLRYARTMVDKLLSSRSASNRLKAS
Test [12] concerns the target Mitogen-activated protein kinase 10 (Homo sapiens, UniProt P53779). In words: Inhibition of JNK3 (unknown origin).
For test [13], the target named is T3, Receptor-type tyrosine-protein kinase FLT3 (Homo sapiens, UniProt P36888).
T3 sequence (P36888 whole entry): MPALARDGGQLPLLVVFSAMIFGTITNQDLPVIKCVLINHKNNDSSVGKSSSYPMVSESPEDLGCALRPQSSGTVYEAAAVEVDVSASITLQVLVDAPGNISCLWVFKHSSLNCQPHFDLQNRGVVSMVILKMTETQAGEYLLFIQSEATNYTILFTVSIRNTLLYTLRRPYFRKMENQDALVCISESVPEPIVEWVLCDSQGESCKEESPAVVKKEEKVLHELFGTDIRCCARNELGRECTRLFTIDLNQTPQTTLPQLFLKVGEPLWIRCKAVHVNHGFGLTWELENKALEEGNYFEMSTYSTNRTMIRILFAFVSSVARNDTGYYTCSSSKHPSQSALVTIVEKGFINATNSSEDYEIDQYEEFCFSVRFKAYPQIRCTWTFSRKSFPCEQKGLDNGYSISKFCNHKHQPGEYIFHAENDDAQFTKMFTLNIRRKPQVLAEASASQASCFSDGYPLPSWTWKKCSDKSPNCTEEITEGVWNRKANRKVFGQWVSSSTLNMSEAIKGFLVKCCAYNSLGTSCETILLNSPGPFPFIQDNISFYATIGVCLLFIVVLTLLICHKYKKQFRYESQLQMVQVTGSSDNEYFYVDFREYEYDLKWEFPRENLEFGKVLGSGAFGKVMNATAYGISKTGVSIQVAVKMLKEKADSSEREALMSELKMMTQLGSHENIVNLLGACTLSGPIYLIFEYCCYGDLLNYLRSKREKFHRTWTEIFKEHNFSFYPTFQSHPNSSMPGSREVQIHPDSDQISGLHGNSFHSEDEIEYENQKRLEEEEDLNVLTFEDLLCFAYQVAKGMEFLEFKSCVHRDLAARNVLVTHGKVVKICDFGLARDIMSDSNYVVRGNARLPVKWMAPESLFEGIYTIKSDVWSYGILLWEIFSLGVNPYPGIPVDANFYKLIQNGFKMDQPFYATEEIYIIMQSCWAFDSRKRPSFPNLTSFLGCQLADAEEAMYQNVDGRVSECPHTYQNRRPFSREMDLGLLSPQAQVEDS
In words: Inhibition of FLT3 (unknown origin).

For test [14], the target named is Phosphatidylinositol 4,5-bisphosphate 3-kinase catalytic subunit alpha isoform (Homo sapiens, UniProt P42336). In words: Inhibition of PI3Kalpha (unknown origin) using PIP2 as substrate measured after 15 mins in presence of [33P]-ATP by liquid scintillation counting method.

Chain of Mitogen-activated protein kinase 10 (P53779 whole entry): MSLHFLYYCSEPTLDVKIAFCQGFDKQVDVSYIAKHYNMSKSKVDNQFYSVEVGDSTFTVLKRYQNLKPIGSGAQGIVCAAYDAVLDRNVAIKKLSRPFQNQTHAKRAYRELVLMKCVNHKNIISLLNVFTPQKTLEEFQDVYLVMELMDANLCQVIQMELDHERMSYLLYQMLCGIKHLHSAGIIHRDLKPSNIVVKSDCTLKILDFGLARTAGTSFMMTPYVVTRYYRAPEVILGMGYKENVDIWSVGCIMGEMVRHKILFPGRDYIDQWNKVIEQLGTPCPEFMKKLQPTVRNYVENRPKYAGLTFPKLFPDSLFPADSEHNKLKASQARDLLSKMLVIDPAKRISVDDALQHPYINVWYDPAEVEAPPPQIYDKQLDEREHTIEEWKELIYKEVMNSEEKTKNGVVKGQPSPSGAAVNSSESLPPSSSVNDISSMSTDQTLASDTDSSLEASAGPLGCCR
T1 sequence (P48736 whole entry, canonical isoform): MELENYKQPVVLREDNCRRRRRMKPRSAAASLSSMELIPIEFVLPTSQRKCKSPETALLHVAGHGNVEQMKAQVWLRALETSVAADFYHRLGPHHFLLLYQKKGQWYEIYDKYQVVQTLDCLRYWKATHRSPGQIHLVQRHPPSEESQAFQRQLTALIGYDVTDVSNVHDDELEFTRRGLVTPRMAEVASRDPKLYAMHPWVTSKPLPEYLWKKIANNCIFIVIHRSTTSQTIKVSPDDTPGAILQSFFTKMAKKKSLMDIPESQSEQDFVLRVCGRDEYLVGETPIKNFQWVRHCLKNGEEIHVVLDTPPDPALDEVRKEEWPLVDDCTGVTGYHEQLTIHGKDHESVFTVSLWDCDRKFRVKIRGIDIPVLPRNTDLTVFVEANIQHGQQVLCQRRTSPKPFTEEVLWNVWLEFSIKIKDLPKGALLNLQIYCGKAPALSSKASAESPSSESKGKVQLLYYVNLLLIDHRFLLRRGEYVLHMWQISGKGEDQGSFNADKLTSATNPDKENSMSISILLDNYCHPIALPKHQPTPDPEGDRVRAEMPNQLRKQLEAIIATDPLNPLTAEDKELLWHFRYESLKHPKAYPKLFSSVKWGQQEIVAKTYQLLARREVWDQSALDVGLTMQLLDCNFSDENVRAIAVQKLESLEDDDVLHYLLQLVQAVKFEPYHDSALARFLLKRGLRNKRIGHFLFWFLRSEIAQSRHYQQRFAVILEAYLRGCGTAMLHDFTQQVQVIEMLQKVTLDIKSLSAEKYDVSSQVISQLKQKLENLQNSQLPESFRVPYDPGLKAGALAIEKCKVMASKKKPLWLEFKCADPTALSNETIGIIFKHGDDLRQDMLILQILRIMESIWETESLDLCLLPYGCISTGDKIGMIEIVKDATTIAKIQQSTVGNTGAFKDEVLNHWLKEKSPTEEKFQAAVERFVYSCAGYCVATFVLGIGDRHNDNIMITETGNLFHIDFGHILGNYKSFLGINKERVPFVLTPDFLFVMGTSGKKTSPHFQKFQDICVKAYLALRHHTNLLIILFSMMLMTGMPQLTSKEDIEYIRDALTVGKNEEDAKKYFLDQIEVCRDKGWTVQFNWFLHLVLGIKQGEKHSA
Chain of Proto-oncogene tyrosine-protein kinase Src (P12931 2-536 limits assumed): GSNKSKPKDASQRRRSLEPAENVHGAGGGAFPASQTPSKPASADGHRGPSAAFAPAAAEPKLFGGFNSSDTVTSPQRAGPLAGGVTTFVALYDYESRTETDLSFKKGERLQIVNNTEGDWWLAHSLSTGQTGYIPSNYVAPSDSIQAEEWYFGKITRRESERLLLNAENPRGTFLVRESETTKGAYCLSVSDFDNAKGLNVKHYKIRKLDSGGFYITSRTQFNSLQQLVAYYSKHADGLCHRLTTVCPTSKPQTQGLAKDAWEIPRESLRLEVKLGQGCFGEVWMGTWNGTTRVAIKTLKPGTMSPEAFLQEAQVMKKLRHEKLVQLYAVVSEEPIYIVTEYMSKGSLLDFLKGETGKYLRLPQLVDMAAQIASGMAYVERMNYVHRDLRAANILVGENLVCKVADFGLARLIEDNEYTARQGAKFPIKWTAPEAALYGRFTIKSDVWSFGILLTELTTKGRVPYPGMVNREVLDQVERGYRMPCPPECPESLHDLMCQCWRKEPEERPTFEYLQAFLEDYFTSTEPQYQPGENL
Chain of Glycogen synthase kinase-3 beta (P49841 whole entry): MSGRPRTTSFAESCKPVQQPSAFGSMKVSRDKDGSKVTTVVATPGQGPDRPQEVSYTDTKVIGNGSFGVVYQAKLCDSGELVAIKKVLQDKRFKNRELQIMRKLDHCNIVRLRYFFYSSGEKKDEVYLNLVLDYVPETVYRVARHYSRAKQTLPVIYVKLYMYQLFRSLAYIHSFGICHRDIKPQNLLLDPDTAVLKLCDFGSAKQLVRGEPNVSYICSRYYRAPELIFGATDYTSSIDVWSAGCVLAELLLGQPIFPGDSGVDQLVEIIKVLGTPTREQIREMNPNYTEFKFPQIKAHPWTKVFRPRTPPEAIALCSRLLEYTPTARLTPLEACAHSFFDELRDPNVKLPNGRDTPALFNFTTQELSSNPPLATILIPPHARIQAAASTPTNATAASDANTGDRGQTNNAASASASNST

`COCCNC(=O)Nc1nc(C)c(C#Cc2ccncc2)s1`: the Ki in [1] was 0.043 µM. The IC50 in test [2] amounted to 0.76 µM.

For the compound `CCCOCCNC(=O)Nc1nc(C)c(C#Cc2ccncc2)s1`, the Ki in [1] came to 0.006 µM. In addition, the IC50 in test [2] is 0.23 µM.

On to `Cc1nc(NC(=O)NCCOCC2CC2)sc1C#Cc1cnc2ncccc2c1`, for which, in test [1], the Ki was found to be 0.045 µM. The IC50 in test [2] is above 10 µM.

As for `CCOCCNC(=O)Nc1nc(C)c(C#Cc2ccncc2)s1`, the Ki in test [1] stood at 0.042 µM. In addition, in [2], the IC50 amounted to 0.56 µM.

As to `COc1cc(C#Cc2sc(NC(=O)NCCOCC3CC3)nc2C)cnc1OC`, the inhibition in vivo at 50 mg/kg in the test with Mus musculus stood at 85%. Also, the Ki in test [3] was above 4 µM; in test [4], above 4 µM; in test [5], above 4 µM; in test [1] it was 0.003 µM; in [6], above 4 µM; in [7] it was above 4 µM. Also, the Ki in [8], in test [9], in test [10], in test [11], in [12] and in test [13] was above 4 µM throughout. For the same compound, the IC50 in [2] was 0.18 µM.

As for `Cc1nc(NC(=O)NCCOCC2CC2)sc1C#Cc1ccnc2ccccc12`, in test [1], the Ki was 0.006 µM. Moreover, in [2], the IC50 turned out to be 0.29 µM.

As for `Cc1nc(NC(=O)NCCOCC2CC2)sc1C#Cc1ccc2cncn2c1`, the Ki in [3], in test [4], in test [5], in test [6], in test [7] and in [8] was above 4 µM in each case. Further, the Ki in test [9], in [10], in [11], in test [12] and in test [13] was above 4 µM throughout.

`Cc1nc(NC(=O)NCCc2cn(CC(F)F)cn2)sc1C#Cc1cccnc1`: the Ki in [3] was above 4 µM; in test [4] it was above 4 µM; in test [5] it was above 4 µM; in [14] it was 0.252 µM; in [1], 0.004 µM; in [6], above 4 µM. In addition, the Ki in test [7], in [8], in test [9], in test [10], in [11] and in test [12] was above 4 µM each time. Besides, the Ki in test [13] was above 4 µM. For the same compound, in [2], the IC50 is 0.13 µM.

Consider `Cc1nc(NC(=O)NCCOCC2CC2)sc1C#Cc1ccnc(F)c1`, for which, in test [1], the Ki amounted to 0.006 µM. Besides, the IC50 in test [2] was 0.49 µM.

The Ki is the equilibrium dissociation constant of an inhibitor or competing ligand from its target. One may read the IC50 as the concentration at which inhibition is half-maximal. By inhibition in vivo is commonly meant how much of the control response was suppressed.
